In ChEMBL document CHEMBL1201862, “PubChem BioAssay data set” (2004):
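A five-concentration, 48-hour dose response in 96-well plates underlies each endpoint, interpolated linearly between surrounding concentrations. GI50 marks 50% less growth.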 Activity calls are given as the source filed them. No stated cut-off is given here; in the data, active = GI50 up to about 1.1 µM and inactive = higher.

Tests used:
Assay in all cases: NCI anticancer screen, dose series, 48 h
A498 = test system: A498
COLO 205 = test system: COLO 205
EKVX = test system: EKVX
HCC 2998 = test system: HCC 2998
HCT-116 = test system: HCT-116
HCT-15 = test system: HCT-15
K562 = test system: K562
LOX IMVI = test system: LOX IMVI
MOLT-4 = test system: MOLT-4
Malme-3M = test system: Malme-3M
NCI-H226 = test system: NCI-H226
RPMI-8226 = test system: RPMI-8226
SF-539 = test system: SF-539
SK-MEL-5 = test system: SK-MEL-5
SNB-75 = test system: SNB-75
TK-10 = test system: TK-10
UACC-257 = test system: UACC-257
UACC-62 = test system: UACC-62
UO-31 = test system: UO-31
HOP-92 = test system: HOP-92

Compound | GI50 (A498) | GI50 (COLO 205) | GI50 (EKVX) | GI50 (HCC 2998) | GI50 (HCT-116) | GI50 (HCT-15) [µM] | GI50 (K562) | GI50 (LOX IMVI) | GI50 (MOLT-4) | GI50 (Malme-3M) | GI50 (NCI-H226) | GI50 (RPMI-8226) | GI50 (SF-539) | GI50 (SK-MEL-5) | GI50 (SNB-75) | GI50 (TK-10) | GI50 (UACC-257) | GI50 (UACC-62) | GI50 (UO-31) | GI50 (HOP-92)
COc1cc(/C=C2\C[C@H]3[C@@H]4CCc5cc(O)ccc5[C@H]4CC[C@]3(C)C2=O)cc(OC)c1OC | 32.4 µM (inactive) | 16.7 µM (inactive) | 10.1 µM (inactive) | 12.9 µM (inactive) | 13.4 µM (inactive) | 25.8 | 12.3 µM (inactive) | 15.5 µM (inactive) | 11.1 µM (inactive) | 2.53 µM (inactive) | 6.05 µM (inactive) | 14.4 µM (inactive) | 25.8 µM (inactive) | 4.31 µM (inactive) | 12.2 µM (inactive) | 8.81 µM (inactive) | 10.8 µM (inactive) | 22.7 µM (inactive) | 11.6 µM (inactive) | –
CN1C2CCC1CC(CCNC(c1ccccc1)c1ccccc1)C2 (stereo not drawn) | 23.8 µM (inactive) | 11.5 µM (inactive) | 24.9 µM (inactive) | – | 18.3 µM (inactive) | 33.7 | 6.5 µM (inactive) | 20.2 µM (inactive) | 25.4 µM (inactive) | 17.3 µM (inactive) | 36.9 µM (inactive) | 20.2 µM (inactive) | 17.9 µM (inactive) | 12.9 µM (inactive) | 47.2 µM (inactive) | 22.2 µM (inactive) | 16.4 µM (inactive) | – | 17.2 µM (inactive) | 18 µM (inactive)
COC(=O)/C(C#N)=C(\N)c1c(C)c2ccccc2oc1=N | > 100 µM (inactive) | > 100 µM (inactive) | > 100 µM (inactive) | – | > 100 µM (inactive) | > 100 | > 100 µM (inactive) | > 100 µM (inactive) | > 100 µM (inactive) | – | – | > 100 µM (inactive) | > 100 µM (inactive) | > 100 µM (inactive) | > 100 µM (inactive) | > 100 µM (inactive) | > 100 µM (inactive) | > 100 µM (inactive) | – | > 100 µM (inactive)
CC12C(=O)OC(=O)C1(C)C1C=CC2O1 (stereo not drawn) | > 100 µM (inactive) | > 100 µM (inactive) | > 100 µM (inactive) | > 100 µM (inactive) | > 100 µM (inactive) | > 100 | > 100 µM (inactive) | > 100 µM (inactive) | > 100 µM (inactive) | 67.6 µM (inactive) | 21.7 µM (inactive) | > 100 µM (inactive) | > 100 µM (inactive) | 66.4 µM (inactive) | 14.9 µM (inactive) | 78.7 µM (inactive) | > 100 µM (inactive) | > 100 µM (inactive) | 62.1 µM (inactive) | –
CC(C)(C)[Si](C)(C)OC1(CCc2ccccc2OS(=O)(=O)C(F)(F)F)CCCC=C1COCc1ccccc1 (stereo not drawn) | 66.4 µM (inactive) | 5.85 µM (inactive) | > 100 µM (inactive) | – | 3.33 µM (inactive) | 12.5 | 5.71 µM (inactive) | 4.31 µM (inactive) | 5.14 µM (inactive) | 0.202 µM (active) | 46.1 µM (inactive) | 2.95 µM (inactive) | > 100 µM (inactive) | – | 8.61 µM (inactive) | > 100 µM (inactive) | – | 29.5 µM (inactive) | – | –
CC(C)(C)c1cc(Cc2ccc(S(C)(=O)=O)cc2)c(O)c(C(C)(C)C)c1 | 16.1 µM (inactive) | – | 15.1 µM (inactive) | 16.2 µM (inactive) | 14 µM (inactive) | 16.9 | 13.8 µM (inactive) | 14.6 µM (inactive) | 12.3 µM (inactive) | 18.1 µM (inactive) | – | 10.8 µM (inactive) | 16.7 µM (inactive) | 16.3 µM (inactive) | 14.8 µM (inactive) | 17.9 µM (inactive) | 17 µM (inactive) | 13.1 µM (inactive) | 16.1 µM (inactive) | –
O=c1oc2ccc([N+](=O)[O-])cc2cc1-c1csc(-c2ccccc2)n1 | – | > 100 µM (inactive) | > 100 µM (inactive) | > 100 µM (inactive) | > 100 µM (inactive) | > 100 | > 100 µM (inactive) | > 100 µM (inactive) | > 100 µM (inactive) | 32.6 µM (inactive) | > 100 µM (inactive) | > 100 µM (inactive) | > 100 µM (inactive) | > 100 µM (inactive) | 0.817 µM (active) | > 100 µM (inactive) | > 100 µM (inactive) | > 100 µM (inactive) | > 100 µM (inactive) | > 100 µM (inactive)
Cc1n[nH]c(=O)n1N=C(c1ccccc1)c1ccccc1 | > 100 µM (inactive) | > 100 µM (inactive) | > 100 µM (inactive) | – | > 100 µM (inactive) | > 100 | > 100 µM (inactive) | > 100 µM (inactive) | > 100 µM (inactive) | 24.9 µM (inactive) | > 100 µM (inactive) | > 100 µM (inactive) | – | > 100 µM (inactive) | – | > 100 µM (inactive) | > 100 µM (inactive) | > 100 µM (inactive) | > 100 µM (inactive) | > 100 µM (inactive)
COc1ccc2nc3cc([N+](=O)[O-])ccc3c(Nc3ccc(S(=O)(=O)Nc4ncccn4)cc3)c2c1 | – | 40.3 µM (inactive) | > 100 µM (inactive) | > 59 µM (inactive) | 40.6 µM (inactive) | > 69.8 | 35.4 µM (inactive) | > 73.8 µM (inactive) | > 20.2 µM (inactive) | 48.3 µM (inactive) | 69.3 µM (inactive) | 14.5 µM (inactive) | > 100 µM (inactive) | 41.6 µM (inactive) | 62.2 µM (inactive) | 66.8 µM (inactive) | > 71.1 µM (inactive) | > 65.9 µM (inactive) | 19.4 µM (inactive) | > 44.7 µM (inactive)
CCOc1cccc2[s+]snc12 | > 100 µM (inactive) | > 100 µM (inactive) | > 100 µM (inactive) | > 100 µM (inactive) | > 100 µM (inactive) | > 100 | 39.8 µM (inactive) | 50.1 µM (inactive) | 78.2 µM (inactive) | > 100 µM (inactive) | > 100 µM (inactive) | – | 46.8 µM (inactive) | 23.6 µM (inactive) | 25.6 µM (inactive) | > 100 µM (inactive) | > 100 µM (inactive) | 40.3 µM (inactive) | 37.3 µM (inactive) | –
CN1C(=O)C2(C)SC1(c1ccccc1)C1C(=O)N(c3ccccc3)C(=O)C12 (stereo not drawn) | 49.9 µM (inactive) | 67.9 µM (inactive) | 98.9 µM (inactive) | – | 70.8 µM (inactive) | 66.4 | 57.4 µM (inactive) | > 100 µM (inactive) | 40.9 µM (inactive) | > 100 µM (inactive) | 60.4 µM (inactive) | 49.8 µM (inactive) | > 100 µM (inactive) | 97.7 µM (inactive) | – | 57.4 µM (inactive) | 26.4 µM (inactive) | 65.3 µM (inactive) | > 100 µM (inactive) | 36.6 µM (inactive)
CC1(C)CCSC(/C=C/c2ccccc2)=N1 | 20.1 µM (inactive) | – | 31.6 µM (inactive) | – | 13.6 µM (inactive) | 9.77 | > 100 µM (inactive) | 13.7 µM (inactive) | 19 µM (inactive) | 11.8 µM (inactive) | – | 17.7 µM (inactive) | 19.8 µM (inactive) | 15.2 µM (inactive) | – | 18.2 µM (inactive) | 13 µM (inactive) | – | – | 13.4 µM (inactive)
C=C(CBr)CCCOCc1ccccc1 | 35.2 µM (inactive) | 27.6 µM (inactive) | 22.9 µM (inactive) | – | 41.6 µM (inactive) | 22 | 40.3 µM (inactive) | 30.6 µM (inactive) | 30.8 µM (inactive) | 20.7 µM (inactive) | 15.5 µM (inactive) | 29.7 µM (inactive) | 19.5 µM (inactive) | 20.5 µM (inactive) | – | 16.7 µM (inactive) | 33.9 µM (inactive) | 18.7 µM (inactive) | 13.7 µM (inactive) | 21.6 µM (inactive)
Cc1ccc(NC(=O)c2cc3ccccc3c(/N=N/c3cc(S(=O)(=O)O)ccc3O)c2O)c(C)c1 | 42.3 µM (inactive) | 36.8 µM (inactive) | 19.6 µM (inactive) | – | 29.9 µM (inactive) | 9.33 | 23 µM (inactive) | 32.4 µM (inactive) | 17.1 µM (inactive) | 16.4 µM (inactive) | 15.4 µM (inactive) | 15 µM (inactive) | – | 23.7 µM (inactive) | 23.3 µM (inactive) | 25.1 µM (inactive) | 23.8 µM (inactive) | 15.5 µM (inactive) | 4.44 µM (inactive) | 21.2 µM (inactive)
S=P1(Oc2ccccc2)NNP2(=NP(N3CC3)(N3CC3)=NP(N3CC3)(N3CC3)=N2)NN1 (stereo not drawn) | > 100 µM (inactive) | > 100 µM (inactive) | > 100 µM (inactive) | > 100 µM (inactive) | > 100 µM (inactive) | > 100 | > 100 µM (inactive) | > 100 µM (inactive) | 19.6 µM (inactive) | > 100 µM (inactive) | > 100 µM (inactive) | > 100 µM (inactive) | > 100 µM (inactive) | > 100 µM (inactive) | 64.4 µM (inactive) | > 100 µM (inactive) | > 100 µM (inactive) | 98.4 µM (inactive) | > 100 µM (inactive) | –
CC(C)(C1=NC(C(C)(C)C)CO1)C1=N[C@@H](C(C)(C)C)CO1 (stereo partly drawn) | – | > 100 µM (inactive) | > 100 µM (inactive) | > 100 µM (inactive) | > 100 µM (inactive) | > 100 | > 100 µM (inactive) | > 100 µM (inactive) | > 100 µM (inactive) | > 100 µM (inactive) | > 100 µM (inactive) | > 100 µM (inactive) | > 100 µM (inactive) | > 100 µM (inactive) | > 100 µM (inactive) | > 100 µM (inactive) | > 100 µM (inactive) | > 100 µM (inactive) | > 100 µM (inactive) | > 100 µM (inactive)
